Results on 21 compounds are retold here after patent US8318949B2, “Organic compounds” (Novartis AG, priority 2008, dated 2012).

Usually IC50 stands for the concentration needed to halve the response being measured. What is called melting point is the temperature of the solid-liquid transition.

In data set [1] the target is T1, stearoyl-CoA desaturase (SCD1) (Mus musculus, UniProt P13516).
T1 construct: Male ICR outbread mice, on a high-carbohydrate, low fat diet; from tissue; host or cells: liver microsomes of male ICR mice on a high-carbohydrate, low fat diet
T1 sequence (P13516 1-355): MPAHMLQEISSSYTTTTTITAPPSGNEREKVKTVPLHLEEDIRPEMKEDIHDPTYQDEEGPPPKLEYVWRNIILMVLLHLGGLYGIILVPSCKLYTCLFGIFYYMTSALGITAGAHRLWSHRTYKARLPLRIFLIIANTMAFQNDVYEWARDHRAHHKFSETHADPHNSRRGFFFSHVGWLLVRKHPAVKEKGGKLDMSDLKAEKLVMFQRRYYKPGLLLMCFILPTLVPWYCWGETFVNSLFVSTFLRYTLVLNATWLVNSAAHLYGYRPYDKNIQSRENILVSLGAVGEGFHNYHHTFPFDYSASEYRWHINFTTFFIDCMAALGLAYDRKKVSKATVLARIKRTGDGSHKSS
Nature of the data set: Stearoyl-CoA desaturase inhibition, mouse liver microsomes (release of 3H2O from [9,10-3H]stearoyl-CoA). It counts as biochemical. Conditions: 15 min incubation, 25° C., read-out: Microsomal IC50. The text has this: The identification of compounds of the invention as SCD inhibitors was readily accomplished using the SCD enzyme and microsomal assay procedure described in Shanklin J. and Summerville C., Proc. Natl. Acad. Sci. USA (1991), Vol. 88, pp. 2510-2514.
Measuring Stearoyl-CoA Desaturase Inhibition Activity of a Test Compound Using Mouse Liver Microsomes
The identification of compounds of the invention as SCD inhibitors was readily accomplished using the SCD microsomal assay procedure described in Shanklin J. and Summerville C., Proc. Natl. Acad. Sci. USA (1991), Vol. 88, pp. 2510-2514.
Male ICR outbread mice, on a high-carbohydrate, low fat diet, under light halothane (15% in mineral oil) anesthesia are sacrificed by exsanguination during periods of high enzyme activity. Livers are immediately rinsed with cold 0.9% NaCl solution, weighed and minced with scissors. All procedures are performed at 4° C. unless specified otherwise. Livers are homogenized in a solution (1/3 w/v) containing 0.25 M sucrose, 62 mM potassium phosphate buffer (pH 7.0), 0.15 M KCl, 15 mM N-acetyleysteine, 5 mM MgCl2, and 0.1 mM EDTA using 4 strokes of a Potter-Elvehjem tissue homogenizer. The homogenate is centrifuged at 10,400×g for 20 min to eliminate mitochondria and cellular debris. The supernatant is filtered through a 3-layer cheesecloth and centrifuged at 105,000×g for 60 min. The microsomal pellet is gently resuspended in the same homogenization solution with a small glass/teflon homogenizer and stored at −70° C. The absence of mitochondrial contamination is enzymatically assessed. The protein concentration is measured using bovine serum albumin as the standard.
Desaturase activity is measured as the release of ^3H2O from [9,10-^3H]stearoyl-CoA. Reactions per assay point conditions are as follows: 2 μL 1.5 mM stearoyl-CoA, 0.25 μL 1 mCi/mL ^3H stearoyl CoA, 10 μL 20 mM NADH, 36.75 μL 0.1 M PK buffer (K2HPO4/NaH2PO4, pH 7.2). The test compound or control solution is added in a 1 μL volume. Reactions are started by adding 50 μL of microsomes (1.25 mg/mL). The plates are mixed and after 15 min incubation on a heating block (25° C.), the reactions are stopped by the addition of 10 μL 60% PCA. An aliquot of 100 μL is then transferred to a filter plate pretreated with charcoal and the plate centrifuged at 4000 rpm for 1 minute. The flow through containing the ^3H2O released by the SCD1 desaturation reaction is added to scintillation fluid and the radioactivity measured in a Packard TopCount. The data is analysed to identify the IC50 for test compounds and reference compounds.
The activity was defined in terms of % SCD enzyme activity remaining at the desired concentration of the test compound or as the IC50 concentration. The IC50 (affinity) of the example compounds toward the stearoyl-CoA desaturase is comprised between around […] and 0.0001 μM or between around 5 μM and 0.0001 μM or between around 1 μM and 0.0001 μM.
A general note: Liver microsomes are a subcellular fraction often used to study metabolism.

In the case of `Cc1nc(N2C[C@@H](C)N(Cc3ccc(F)cc3)C2=O)sc1C(=O)NCc1cccnc1` [Example 2.7, (R)-2-(3-(4-Fluorobenzyl)-4-methyl-2-oxoimidazolidin-1-yl)-4-methyl-N-(pyridin-3-ylmethyl)thiazole-5-carboxamide], the melting point fell in the range of 135 to 136 °C. For the same compound, in data set [1], the IC50 came out at 36 nM.
In the case of `Cc1nc(N2CCN(CC(C)C)C2=O)sc1C(=O)NCc1cccnc1` [Example 12.18, 2-(3-isobutyl-2-oxoimidazolidin-1-yl)-4-methyl-N-(pyridin-3-ylmethyl)thiazole-5-carboxamide], the IC50 in data set [1] is 156 nM.
Consider `Cc1nc(N2CCN(Cc3cccc(C(F)(F)F)c3)C2=O)sc1-c1cc[nH]n1` [Example 17.2, 1-(4-methyl-5-(1H-pyrazol-3-yl)thiazol-2-yl)-3-(3-(trifluoromethyl)benzyl)imidazolidin-2-one], for which the melting point was 209 to 214 °C. For the same compound, the IC50 in data set [1] turned out to be 186 nM.
In the case of `Cc1nc(N2C(=O)N(Cc3ccc(F)cc3)C3CC32)sc1C(=O)NCc1cccnc1` (centres unmarked) [Example 19, 2-(4-(4-fluorobenzyl)-3-oxo-2,4-diazabicyclo[3.1.0]hexan-2-yl)-4-methyl-N-(pyridin-3-ylmethyl)thiazole-5-carboxamide], in data set [1], the IC50 worked out at 1210 nM.
In the case of `Cc1nc(-n2cnn(C(C)c3ccccc3)c2=O)sc1C(=O)NCc1cccnc1` (centres unmarked) [Example 20-5, 4-methyl-2-(5-oxo-1-(1-phenylethyl)-1H-1,2,4-triazol-4(5H)-yl)-N-(pyridin-3-ylmethyl)thiazole-5-carboxamide], the IC50 in data set [1] was determined as 98 nM.
On to `Cc1nc(-n2cnn(C(C)c3ccccc3)c2=O)sc1C(N)=O` (centres unmarked) [Example 20-6, 4-methyl-2-(5-oxo-1-(1-phenylethyl)-1H-1,2,4-triazol-4(5H)-yl)thiazole-5-carboxamide], for which the IC50 in data set [1] was 80 nM.
For `Cc1nc(-n2cnn(Cc3ccc(F)cc3)c2=O)sc1C(=O)NCc1ccc(C(F)(F)F)nc1` [Example 20-8, 2-(1-(4-fluorobenzyl)-5-oxo-1H-1,2,4-triazol-4(5H)-yl)-4-methyl-N-((6-(trifluoromethyl)pyridin-3-yl)methyl)thiazole-5-carboxamide], the IC50 in data set [1] came to 1720 nM.
Regarding `Cc1nc(-n2cnn(C(C)c3ccccc3)c2=O)sc1C(=O)NCc1cncs1` (centres unmarked) [Example 20-10, 4-methyl-2-(5-oxo-1-(1-phenylethyl)-1H-1,2,4-triazol-4(5H)-yl)-N-(thiazol-5-ylmethyl)thiazole-5-carboxamide], the IC50 in data set [1] is 8 nM.
Same read-out and setting: to `Cc1nc(-n2cnn(CC3CC3(F)F)c2=O)sc1C(=O)NCc1cncs1` (centres unmarked) [Example 20-12, 2-(1-((2,2-difluorocyclopropyl)methyl)-5-oxo-1H-1,2,4-triazol-4(5H)-yl)-4-methyl-N-(thiazol-5-ylmethyl)thiazole-5-carboxamide] belongs 18 nM.
Take `Cc1nc(-n2cnn(C(C)c3ccccc3)c2=O)sc1C(=O)NCc1csc(C(F)(F)F)n1` (centres unmarked) [Example 20-17, 4-methyl-2-(5-oxo-1-(1-phenylethyl)-1H-1,2,4-triazol-4(5H)-yl)-N-((2-(trifluoromethyl)-thiazol-4-yl)-methyl)thiazole-5-carboxamide]: the half-maximal inhibitory concentration (IC50) in data set [1] came out at 208 nM.
`Cc1nc(N2CCN(Cc3ccc(C(F)(F)F)cc3)C2=O)sc1C(=O)NCc1ccc2nccn2c1` [Example 20-22, N-(imidazo[1,2-a]pyridin-6-ylmethyl)-4-methyl-2-(2-oxo-3-(4-(trifluoromethyl)-benzyl)imidazolidin-1-yl)-thiazole-5-carboxamide]: the IC50 in data set [1] was 709 nM.
`Cc1nc(N2CCN(Cc3cccc(F)c3)C2=O)sc1C(N)=O` [Example 20-24, 2-(3-(3-fluorobenzyl)-2-oxoimidazolidin-1-yl)-4-methylthiazole-5-carboxamide]: the IC50 in data set [1] was 40 nM.
Consider `Cc1nc(N2CCN(C(C)c3ccccc3)C2=O)sc1C(=O)NCc1cncs1` (centres unmarked) [Example 20-26, 4-methyl-2-(2-oxo-3-(1-phenylethyl)-imidazolidin-1-yl)-N-(thiazol-5-yl-methyl)thiazole-5-carboxamide], for which the IC50 in data set [1] was 11 nM.
`Cc1nc(-n2cnn(Cc3cc(F)cc(F)c3)c2=O)sc1C(=O)NCc1ccccn1` [Example 20-52, 2-(1-(3,5-difluorobenzyl)-5-oxo-1H-1,2,4-triazol-4(5H)-yl)-4-methyl-N-(pyridin-2-ylmethyl)-thiazole-5-carboxamide]: the IC50 in data set [1] is 13 nM.
For `Cc1nc(-n2cnn(Cc3ccc(OC(F)(F)F)cc3)c2=O)sc1C(=O)NCc1ccccn1` [Example 20-54, 4-methyl-2-(5-oxo-1-(4-(trifluoromethoxy)-benzyl)-1H-1,2,4-triazol-4(5H)-yl)-N-(pyridin-2-ylmethyl)-thiazole-5-carboxamide], the half-inhibitory concentration (IC50) in data set [1] came to 20 nM.
Turning to `Cc1nc(-c2sc(N3CCN(Cc4ccc(OC(F)(F)F)cc4)C3=O)nc2C)n[nH]1` [Example 20-57, 1-(4-methyl-5-(5-methyl-1H-1,2,4-triazol-3-yl)thiazol-2-yl)-3-(4-(trifluoromethoxy)-benzyl)imidazolidin-2-one], the half-inhibitory concentration (IC50) in data set [1] amounted to 119 nM.
Take `Cc1nc(-n2cnn(CC3CC3(F)F)c2=O)sc1C(=O)NCc1cnn(C)c1` (centres unmarked) [Example 20-76, 2-(1-((2,2-difluorocyclopropyl)methyl)-5-oxo-1H-1,2,4-triazol-4(5H)-yl)-4-methyl-N-((1-methyl-1H-pyrazol-4-yl)methyl)thiazole-5-carboxamide]: the IC50 in data set [1] stood at 551 nM.
Same read-out and setting: to `Cc1cc(CNC(=O)c2sc(N3CCN(CC4CC4)C3=O)nc2C)no1` [Example 20-83, 2-(3-(cyclopropylmethyl)-2-oxoimidazolidin-1-yl)-4-methyl-N-((5-methylisoxazol-3-yl)methyl)thiazole-5-carboxamide] belongs 11 nM.
On to `Cc1nc(N2CCN(Cc3cc(Cl)cc(Cl)c3)C2=O)sc1C(=O)NCc1ccccn1` [Example 20-90, 2-(3-(3,5-dichlorobenzyl)-2-oxoimidazolidin-1-yl)-4-methyl-N-(pyridin-2-ylmethyl)thiazole-5-carboxamide], for which the IC50 in data set [1] was determined as 8 nM.
Turning to `Cc1nc(N2CCN(CCC3CC3)C2=O)sc1C(=O)NCc1ccccn1` [Example 20-103, 2-(3-(2-cyclopropylethyl)-2-oxoimidazolidin-1-yl)-4-methyl-N-(pyridin-2-ylmethyl)thiazole-5-carboxamide], in data set [1], the IC50 was found to be 38 nM.
The same measure, in the same setting: in the case of `Cc1nc(N2CCN(Cc3ccc(S(C)(=O)=O)cc3)C2=O)sc1C(N)=O` [Example 20-133, 4-methyl-2-(3-(4-(methylsulfonyl)benzyl)-2-oxoimidazolidin-1-yl)thiazole-5-carboxamide] it was 527 nM.
